Here are results for 5 compounds from ChEMBL document CHEMBL3046707, “Cheminformatic designing of de novo inhibitors to 3-methyl adenine DNA glycosylase I (LiTagA) from Leptospira interrogans serovar lai strain 56601” (Med Chem Res, 2013).

pIC50: −log10 of the molar value.

The target of the assay is T1, DNA-3-methyladenine glycosylase 1 (Escherichia coli (strain K12), UniProt P05100).
T1 sequence (P05100 whole entry): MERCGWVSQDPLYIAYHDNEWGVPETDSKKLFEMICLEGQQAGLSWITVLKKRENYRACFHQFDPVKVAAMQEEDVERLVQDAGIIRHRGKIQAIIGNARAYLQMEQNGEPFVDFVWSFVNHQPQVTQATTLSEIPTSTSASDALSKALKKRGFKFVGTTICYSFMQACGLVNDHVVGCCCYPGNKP
The assay is described as follows: Inhibition of Escherichia coli DNA-3-methyladenine glycosylase 1.
Regarding `CCn1cnc(N)c2ncnc1-2` [3-ETHYLADENINE], the pIC50 is 4.30.

`Nc1ncn(Cc2ccccc2)c2ncnc1-2` [3-BENZYLADENINE] gave a negative logarithm of the IC50 (pIC50) of 6.40.

In turn, `CCCn1cnc(N)c2ncnc1-2` [3-PROPYLADENINE] gave a pIC50 of 5.30.

`Cn1cnc(N)c2ncnc1-2` [3-METHYLADENINE]: the pIC50 is 2.82.

`CCCCn1cnc(N)c2ncnc1-2` [3-BUTYLADENINE] gave a pIC50 of 5.64.
